The text below walks through data of patent publication US20250296938A1, “Compounds that Interact with the Ras Superfamily for the Treatment of Cancers, Inflammatory Diseases, Rasopathies, and Fibrotic Disease” (SHY Therapeutics, LLC, priority 2018, published 2025).

Molecules are shown by their SMILES.

The first assay has as its system KRas G12C mutant. The assay can be described thus: Ras GTP binding domain inhibition assay (Cy3-GTP/Cy5-GTP competition). Set-up: species or system human. Conditions: 20 μM; with SOS (Table 7A). In a few lines: (§1)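 His-tagged Ras proteins were captured on nickel-coated wells in Buffer-I (25 mM Tris-HCl pH 7.4, 27 mM KCl, 137 mM NaCl, 1 mM MgCl2, 1 mM DTT) or Buffer-II (50 mM Tris-HCl pH 7.0). Compounds (20 μM or serial dilution, 1% DMSO) were incubated 3 h at RT, ±Sos(556-1049) in the final hour. Bound Cy3-/Cy5-GTP (100 nM, 45 min) was read after washing.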
On to `CO[C@H]1CC[C@@H](Nc2nc(-c3nccn3C)nc(C(=O)N3CCc4c(O)cccc4C3)c2C)C1` [drawing 901], for which the “KRas G12C mutant + SOS: % inh.” value is “A (1-25% inhibition)”.

Turning to `CO[C@H]1C[C@@H](Nc2nc(-c3ccccn3)nc3sccc23)C1` [drawing 902], the “KRas G12C mutant + SOS: % inh.” value was “C (51-75% inhibition)”.

Take `CO[C@H]1C[C@@H](Nc2nc(-c3nccn3C)nc3sccc23)C1` [drawing 903]: the “KRas G12C mutant + SOS: % inh.” value is “D (76-100% inhibition)”.

Turning to `Cn1ccc(-c2sc3nc(-c4nccn4C)nc(O)c3c2-c2ccccc2)n1` [drawing 904], the “KRas G12C mutant + SOS: % inh.” value was “B (26-50% inhibition)”.

For `CO[C@H]1C[C@H](Nc2nc(-c3nccn3C)nc3sc(-c4ccn(C)n4)c(-c4ccccc4)c23)C1` [drawing 906], the “KRas G12C mutant + SOS: % inh.” value is “D (76-100% inhibition)”.

As for `CN(C)CCOCCNc1nc(-c2nccn2C)nc2sc(-c3ccn(C)n3)c(-c3ccccc3)c12` [drawing 907], the “KRas G12C mutant + SOS: % inh.” value is listed as “C (51-75% inhibition)”.

The same assay, now with this note: 20 μM; without SOS (Table 7A).
On to `CO[C@H]1CC[C@@H](Nc2nc(-c3nccn3C)nc(C(=O)N3CCc4c(O)cccc4C3)c2C)C1` [drawing 901], for which the “KRas G12C mutant: % inh.” value is on record as “B (26-50% inhibition)”.

`CO[C@H]1C[C@@H](Nc2nc(-c3ccccn3)nc3sccc23)C1` [drawing 902]: the “KRas G12C mutant: % inh.” value is given as “C (51-75% inhibition)”.

`CO[C@H]1C[C@@H](Nc2nc(-c3nccn3C)nc3sccc23)C1` [drawing 903]: the “KRas G12C mutant: % inh.” value is listed as “D (76-100% inhibition)”.

Take `Cn1ccc(-c2sc3nc(-c4nccn4C)nc(O)c3c2-c2ccccc2)n1` [drawing 904]: the “KRas G12C mutant: % inh.” value is given as “B (26-50% inhibition)”.

Consider `CO[C@H]1C[C@H](Nc2nc(-c3nccn3C)nc3sc(-c4ccn(C)n4)c(-c4ccccc4)c23)C1` [drawing 906], for which the “KRas G12C mutant: % inh.” value is “C (51-75% inhibition)”.

With `CN(C)CCOCCNc1nc(-c2nccn2C)nc2sc(-c3ccn(C)n3)c(-c3ccccc3)c12` [drawing 907], the “KRas G12C mutant: % inh.” value was “C (51-75% inhibition)”.

The subject of the next assay is KRas Q61H mutant. The assay is described as above. On the set-up: species or system human. Conditions: 20 μM; with SOS (Table 7A). In a few lines: as §1
For `CO[C@H]1CC[C@@H](Nc2nc(-c3nccn3C)nc(C(=O)N3CCc4c(O)cccc4C3)c2C)C1` [drawing 901], the “KRas Q61H mutant + SOS: % inh.” value is listed as “B (26-50% inhibition)”.

On to `CO[C@H]1C[C@@H](Nc2nc(-c3ccccn3)nc3sccc23)C1` [drawing 902], for which the “KRas Q61H mutant + SOS: % inh.” value is “C (51-75% inhibition)”.

`CO[C@H]1C[C@@H](Nc2nc(-c3nccn3C)nc3sccc23)C1` [drawing 903]: the “KRas Q61H mutant + SOS: % inh.” value was “D (76-100% inhibition)”.

Regarding `Cn1ccc(-c2sc3nc(-c4nccn4C)nc(O)c3c2-c2ccccc2)n1` [drawing 904], the “KRas Q61H mutant + SOS: % inh.” value is recorded as “B (26-50% inhibition)”.

Turning to `CO[C@H]1C[C@H](Nc2nc(-c3nccn3C)nc3sc(-c4ccn(C)n4)c(-c4ccccc4)c23)C1` [drawing 906], the “KRas Q61H mutant + SOS: % inh.” value is recorded as “D (76-100% inhibition)”.

On to `CN(C)CCOCCNc1nc(-c2nccn2C)nc2sc(-c3ccn(C)n3)c(-c3ccccc3)c12` [drawing 907], for which the “KRas Q61H mutant + SOS: % inh.” value is “D (76-100% inhibition)”.

The same assay, now with this note: 20 μM; without SOS (Table 7A).
`CO[C@H]1CC[C@@H](Nc2nc(-c3nccn3C)nc(C(=O)N3CCc4c(O)cccc4C3)c2C)C1` [drawing 901]: the “KRas Q61H mutant: % inh.” value was “B (26-50% inhibition)”.

For `CO[C@H]1C[C@@H](Nc2nc(-c3ccccn3)nc3sccc23)C1` [drawing 902], the “KRas Q61H mutant: % inh.” value is “D (76-100% inhibition)”.

For `CO[C@H]1C[C@@H](Nc2nc(-c3nccn3C)nc3sccc23)C1` [drawing 903], the “KRas Q61H mutant: % inh.” value is “D (76-100% inhibition)”.

With `Cn1ccc(-c2sc3nc(-c4nccn4C)nc(O)c3c2-c2ccccc2)n1` [drawing 904], the “KRas Q61H mutant: % inh.” value is listed as “C (51-75% inhibition)”.

As for `CO[C@H]1C[C@H](Nc2nc(-c3nccn3C)nc3sc(-c4ccn(C)n4)c(-c4ccccc4)c23)C1` [drawing 906], the “KRas Q61H mutant: % inh.” value was “C (51-75% inhibition)”.

With `CN(C)CCOCCNc1nc(-c2nccn2C)nc2sc(-c3ccn(C)n3)c(-c3ccccc3)c12` [drawing 907], the “KRas Q61H mutant: % inh.” value was “C (51-75% inhibition)”.

In the next assay the test system is KRas wild type. Described as above. Set-up: species or system human. Conditions: 20 μM; with SOS (Table 7A). In a few lines:
as §1
As to `CO[C@H]1CC[C@@H](Nc2nc(-c3nccn3C)nc(C(=O)N3CCc4c(O)cccc4C3)c2C)C1` [drawing 901], the “KRas wild type + SOS: % inh.” value is recorded as “A (1-25% inhibition)”.

For the molecule `CO[C@H]1C[C@@H](Nc2nc(-c3ccccn3)nc3sccc23)C1` [drawing 902], the “KRas wild type + SOS: % inh.” value was “C (51-75% inhibition)”.

`CO[C@H]1C[C@@H](Nc2nc(-c3nccn3C)nc3sccc23)C1` [drawing 903]: the “KRas wild type + SOS: % inh.” value is recorded as “D (76-100% inhibition)”.

Turning to `Cn1ccc(-c2sc3nc(-c4nccn4C)nc(O)c3c2-c2ccccc2)n1` [drawing 904], the “KRas wild type + SOS: % inh.” value was “A (1-25% inhibition)”.

Consider `CO[C@H]1C[C@H](Nc2nc(-c3nccn3C)nc3sc(-c4ccn(C)n4)c(-c4ccccc4)c23)C1` [drawing 906], for which the “KRas wild type + SOS: % inh.” value is listed as “D (76-100% inhibition)”.

For the molecule `CN(C)CCOCCNc1nc(-c2nccn2C)nc2sc(-c3ccn(C)n3)c(-c3ccccc3)c12` [drawing 907], the “KRas wild type + SOS: % inh.” value was “C (51-75% inhibition)”.

Staying with this assay, now noted: 20 μM; without SOS (Table 7A).
`CO[C@H]1CC[C@@H](Nc2nc(-c3nccn3C)nc(C(=O)N3CCc4c(O)cccc4C3)c2C)C1` [drawing 901]: the “KRas wild type % inh.” value is on record as “B (26-50% inhibition)”.

In the case of `CO[C@H]1C[C@@H](Nc2nc(-c3ccccn3)nc3sccc23)C1` [drawing 902], the “KRas wild type % inh.” value is listed as “C (51-75% inhibition)”.

In the case of `CO[C@H]1C[C@@H](Nc2nc(-c3nccn3C)nc3sccc23)C1` [drawing 903], the “KRas wild type % inh.” value was “C (51-75% inhibition)”.

Consider `Cn1ccc(-c2sc3nc(-c4nccn4C)nc(O)c3c2-c2ccccc2)n1` [drawing 904], for which the “KRas wild type % inh.” value is listed as “A (1-25% inhibition)”.

Consider `CO[C@H]1C[C@H](Nc2nc(-c3nccn3C)nc3sc(-c4ccn(C)n4)c(-c4ccccc4)c23)C1` [drawing 906], for which the “KRas wild type % inh.” value is on record as “C (51-75% inhibition)”.

As for `CN(C)CCOCCNc1nc(-c2nccn2C)nc2sc(-c3ccn(C)n3)c(-c3ccccc3)c12` [drawing 907], the “KRas wild type % inh.” value is on record as “C (51-75% inhibition)”.

A further assay deals with T1, KRas G12D mutant (Homo sapiens, UniProt P01116, G12D).
T1 construct: fused on or other part: His tag, used for capture on nickel-coated plates
The description is as above. Conditions: 20 μM; with SOS (Table 7A); read-out: KRas G12D mutant + SOS: % inh. In a few lines:
as §1
Consider `CO[C@H]1CC[C@@H](Nc2nc(-c3nccn3C)nc(C(=O)N3CCc4c(O)cccc4C3)c2C)C1` [drawing 901], for which the inhibition at 20 µM fell in the range of 26 to 50%.

Regarding `CO[C@H]1C[C@@H](Nc2nc(-c3ccccn3)nc3sccc23)C1` [drawing 902], the inhibition at 20 µM lay within 51 to 75%.

`CO[C@H]1C[C@@H](Nc2nc(-c3nccn3C)nc3sccc23)C1` [drawing 903]: the inhibition at 20 µM lay in the range of 76 to 100%.

`Cn1ccc(-c2sc3nc(-c4nccn4C)nc(O)c3c2-c2ccccc2)n1` [drawing 904]: the inhibition at 20 µM fell in the range of 26 to 50%.

As for `CO[C@H]1C[C@H](Nc2nc(-c3nccn3C)nc3sc(-c4ccn(C)n4)c(-c4ccccc4)c23)C1` [drawing 906], the inhibition at 20 µM was in the range of 51 to 75%.

Consider `CN(C)CCOCCNc1nc(-c2nccn2C)nc2sc(-c3ccn(C)n3)c(-c3ccccc3)c12` [drawing 907], for which the inhibition at 20 µM is 51 to 75%.

The same assay, now with this note: 20 μM; without SOS (Table 7A); read-out: KRas G12D mutant: % inh.
As for `CO[C@H]1CC[C@@H](Nc2nc(-c3nccn3C)nc(C(=O)N3CCc4c(O)cccc4C3)c2C)C1` [drawing 901], the inhibition at 20 µM lay within 26 to 50%.

As to `CO[C@H]1C[C@@H](Nc2nc(-c3ccccn3)nc3sccc23)C1` [drawing 902], the inhibition at 20 µM is 51 to 75%.

In the case of `CO[C@H]1C[C@@H](Nc2nc(-c3nccn3C)nc3sccc23)C1` [drawing 903], the inhibition at 20 µM lay within 76 to 100%.

Consider `Cn1ccc(-c2sc3nc(-c4nccn4C)nc(O)c3c2-c2ccccc2)n1` [drawing 904], for which the inhibition at 20 µM lay within 26 to 50%.

For `CO[C@H]1C[C@H](Nc2nc(-c3nccn3C)nc3sc(-c4ccn(C)n4)c(-c4ccccc4)c23)C1` [drawing 906], the inhibition at 20 µM lay in the range of 26 to 50%.

For the molecule `CN(C)CCOCCNc1nc(-c2nccn2C)nc2sc(-c3ccn(C)n3)c(-c3ccccc3)c12` [drawing 907], the inhibition at 20 µM fell in the range of 26 to 50%.
